Data: the supplement of paper PMC10307832

Columns and labels:
Assay in all cases: relative viability (nuclei count vs DMSO), 5 days (fraction); higher = more cells survive
[1] = compound: CCN1C(=O)C2=CC(=C(N=C2N(C1=O)C3CC3)N)C(=O)N + C[C@]1(O)C[C@@H](c2nc(-c3ccc4ccc(-c5ccccc5)nc4c3)c3c(N)nccn32)C1 [Linsitinib] (partner 1 µM)
Method in brief: (§1)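 The day after seeding in 1536-well plates, lung cancer cell lines were treated by pin tool with a single drug, or with a fixed anchor-drug dose together with five library-drug doses (not always all listed) in √10 steps. After 5 days, a combined fix-and-stain solution (final 0.05% Triton X-100, 1% formaldehyde, 1 ug/ml Hoechst) was added. Nuclei counted on 4× images gave relative viability as treated counts over vehicle counts, reported as the median of duplicate plates.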

[2] = compound: CCN1C(=O)C2=CC(=C(N=C2N(C1=O)C3CC3)N)C(=O)N + Cc1cc(Nc2cc(N3CCN(C)CC3)nc(Sc3ccc(NC(=O)C4CC4)cc3)n2)n[nH]1 [Tozasertib] (partner 0.1 µM)
Method in brief: as §1

[3] = compound: CCN1C(=O)C2=CC(=C(N=C2N(C1=O)C3CC3)N)C(=O)N + Cc1nc(Nc2ncc(C(=O)Nc3c(C)cccc3Cl)s2)cc(N2CCN(CCO)CC2)n1 [Dasatinib] (partner 0.075 µM)
Method in brief: as §1

[4] = compound: CCN1C(=O)C2=CC(=C(N=C2N(C1=O)C3CC3)N)C(=O)N + O=C(CCCCCCC(=O)Nc1ccccc1)NO [Vorinostat] (partner 1 µM)
Method in brief: as §1

[5] = compound: CCN1C(=O)C2=CC(=C(N=C2N(C1=O)C3CC3)N)C(=O)N + O=C(c1cc(Cc2n[nH]c(=O)c3ccccc23)ccc1F)N1CCN(C(=O)C2CC2)CC1 [Olaparib] (partner 8 µM)
Method in brief: as §1

| Cell Line | relative viability ([1]; first compound 0.253 µM) | relative viability ([1]; first compound 0.8 µM) | relative viability ([1]; first compound 2.53 µM) | relative viability ([1]; first compound 8 µM) | relative viability ([2]; first compound 0.253 µM) | relative viability ([2]; first compound 0.8 µM) | relative viability ([2]; first compound 2.53 µM) | relative viability ([2]; first compound 8 µM) | relative viability ([3]; first compound 0.253 µM) | relative viability ([3]; first compound 0.8 µM) | relative viability ([3]; first compound 2.53 µM) | relative viability ([3]; first compound 8 µM) | relative viability ([4]; first compound 0.253 µM) | relative viability ([4]; first compound 0.8 µM) | relative viability ([4]; first compound 2.53 µM) | relative viability ([4]; first compound 8 µM) | relative viability ([5]; first compound 0.253 µM) | relative viability ([5]; first compound 0.8 µM) | relative viability ([5]; first compound 2.53 µM) | relative viability ([5]; first compound 8 µM) |
| --- | --- | --- | --- | --- | --- | --- | --- | --- | --- | --- | --- | --- | --- | --- | --- | --- | --- | --- | --- | --- |
| NCI-H358 | 0.718 | 0.852 | 0.682 | 0.808 | 0.0962 | 0.114 | 0.0945 | 0.119 | 0.157 | 0.148 | 0.189 | 0.17 | 0.788 | 0.625 | 0.628 | 0.863 | 0.584 | 0.61 | 0.578 | 0.581 |
| NCI-H441 | 0.49 | 0.545 | 0.697 | 0.53 | 0.619 | 0.571 | 0.54 | 0.458 | 0.734 | 0.585 | 0.728 | 0.683 | 0.83 | 0.851 | 0.994 | 0.906 | 0.559 | 0.578 | 0.499 | 0.649 |
| NCI-H460 | 0.927 | 0.806 | 0.71 | 0.71 | 0.436 | 0.455 | 0.33 | 0.112 | 0.5 | 0.541 | 0.592 | 0.452 | 0.788 | 0.74 | 0.625 | 0.688 | 0.432 | 0.364 | 0.433 | 0.445 |
| NCI-H520 | 0.938 | 0.951 | 0.961 | 1.11 | 0.426 | 0.397 | 0.382 | 0.451 | 0.17 | 0.222 | 0.222 | 0.31 | 0.719 | 0.655 | 0.717 | 0.817 | 0.335 | 0.341 | 0.356 | 0.3 |
| NCI-H596 | 0.991 | 1.11 | 0.926 | 1.18 | 0.968 | 0.944 | 0.69 | 1.1 | 0.625 | 0.569 | 0.519 | 0.548 | 0.582 | 0.626 | 0.614 | 0.571 | 0.662 | 0.72 | 0.767 | 0.693 |
| NCI-H647 | 1.11 | 0.995 | 1.08 | 1.09 | 0.33 | 0.304 | 0.273 | 0.277 | 0.182 | 0.176 | 0.172 | 0.16 | 0.448 | 0.477 | 0.557 | 0.862 | 0.56 | 0.484 | 0.586 | 0.741 |
| NCI-H650 | 0.949 | 0.636 | 0.957 | 0.697 | 0.704 | 0.759 | 0.67 | 0.702 | 0.434 | 0.349 | 0.424 | 0.373 | 0.565 | 0.313 | 0.408 | 0.421 | 0.437 | 0.39 | 0.296 | 0.445 |
| NCI-H661 | 0.568 | 0.636 | 0.558 | 0.603 | 0.339 | 0.356 | 0.354 | 0.335 | 0.911 | 0.911 | 0.898 | 0.895 | 0.758 | 0.788 | 0.748 | 0.803 | 0.774 | 0.782 | 0.672 | 0.748 |
| NCI-H727 | 0.297 | 0.354 | 0.282 | 0.272 | 0.534 | 0.71 | 0.608 | 0.603 | 0.352 | 0.323 | 0.333 | 0.422 | 1.27 | 1.11 | 1.26 | 1.07 | 0.81 | 0.705 | 0.539 | 0.774 |
| NCI-H838 | 1.06 | 0.895 | 0.974 | 0.99 | 0.258 | 0.203 | 0.28 | 0.234 | 0.29 | 0.296 | 0.316 | 0.265 | 0.756 | 0.694 | 0.692 | 0.752 | 0.737 | 0.764 | 0.746 | 0.722 |
| NCI-H1355 | 0.846 | 0.891 | 0.808 | 0.687 | 0.587 | 0.616 | 0.509 | 0.515 | 0.728 | 0.717 | 0.701 | 0.725 | 0.626 | 0.662 | 0.636 | 0.674 | 0.8 | 0.702 | 0.759 | 0.721 |
| NCI-H1395 | 1.13 | 0.888 | 0.974 | 1.13 | 0.697 | 0.693 | 0.722 | 0.65 | 0.395 | 0.392 | 0.405 | 0.405 | 0.716 | 0.549 | 0.912 | 0.674 | 0.43 | 0.481 | 0.457 | 0.491 |
| NCI-H1437 | 0.929 | 1.04 | 1.01 | 1.11 | 0.378 | 0.42 | 0.374 | 0.411 | 0.404 | 0.367 | 0.464 | 0.418 | 0.845 | 0.804 | 0.756 | 0.808 | 0.684 | 0.637 | 0.622 | 0.585 |
| NCI-H1651 | 0.953 | 1.1 | 0.902 | 1.04 | 0.622 | 0.586 | 0.631 | 0.508 | 0.454 | 0.465 | 0.357 | 0.381 | 0.571 | 0.493 | 0.55 | 0.462 | 0.223 | 0.177 | 0.202 | 0.186 |
| NCI-H1666 | 0.805 | 0.766 | 0.792 | 0.779 | – | 0.608 | 0.584 | 0.618 | – | 0.828 | 0.877 | 0.762 | 1.05 | 0.99 | 1 | 1.09 | 0.719 | 0.724 | 0.856 | 0.737 |
| NCI-H1734 | 0.837 | 0.849 | 0.852 | 0.884 | 0.373 | 0.278 | 0.233 | 0.25 | 0.437 | 0.459 | 0.425 | 0.453 | 0.744 | 0.762 | 0.811 | 0.784 | 0.672 | 0.695 | 0.579 | 0.675 |
